# Measured values reported in patent US20060069132A1, “Azolecarboxamide herbicides” (priority 2004, published 2006).
# Key:
# barnyardgrass [1] = test: Test B pre-/postemergence herbicide test; assay type: in vivo, Echinochloa crus-galli; conditions: for Barnyardgrass plant response rating: postemergence
# Procedure, shortened: (§1)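 Seeds were planted and treated preemergence with compounds formulated in a non-phytotoxic solvent mixture containing surfactant, while plants at the 1- to 4-leaf stage (2 to 18 cm) received postemergence sprays. Flooded paddy plants were grown to the 2-leaf stage. After 13 to 15 days in a greenhouse, injury was visually rated 0–100 against untreated controls.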
# morningglory [2] = test: Test B pre-/postemergence herbicide test; assay type: in vivo, Ipomoea coccinea; conditions: for Morningglory plant response rating: postemergence
# Procedure, shortened: as §1
# velvetleaf [3] = test: Test B pre-/postemergence herbicide test; assay type: in vivo, Abutilon theophrasti; conditions: for Velvetleaf plant response rating: postemergence
# Procedure, shortened: (§2)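 Plants compared with untreated controls 13–15 days post-treatment and given a visual 0–100 injury score. Applications: preemergence to seeds; postemergence at 1- to 4-leaf (2–18 cm); paddy species flooded, 2-leaf stage. Vehicle non-phytotoxic, surfactant included.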
# rice [4] = test: Test B pre-/postemergence herbicide test; assay type: in vivo, Oryza sativa; conditions: 0 = no effect, 100 = complete control, preemergence
# Procedure, shortened: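 Greenhouse pot assay with simultaneous preemergence (treated seed) and postemergence (2–18 cm seedlings) applications of surfactant-containing, non-phytotoxic solvent formulations. Response scored visually 13–15 days later on a 0–100 scale, 100 meaning complete control.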
# giant foxtail [5] = test: Test B pre-/postemergence herbicide test; assay type: in vivo, Setaria faberi; conditions: for Foxtail, Giant plant response rating: postemergence
# Procedure, shortened: as §2
# Surinam grass = test: Test B pre-/postemergence herbicide test; assay type: in vivo, Urochloa decumbens; conditions: for Surinam Grass plant response rating: postemergence
# Procedure, shortened: as §2
# redroot pigweed = test: Test A pre-/postemergence herbicide test; assay type: in vivo, Amaranthus retroflexus
# Procedure, shortened: (§3)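 Greenhouse injury scoring (0–100, complete control = 100) at approximately ten days follows simultaneous pre- and postemergence application. Soil received a directed spray after seeding; seedlings of 2–10 cm at the one- to two-leaf stage were sprayed to runoff.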
# pigweed = test: Test B pre-/postemergence herbicide test; assay type: in vivo, Amaranthus retroflexus; conditions: for Pigweed plant response rating: postemergence
# Procedure, shortened: as §2
# [6] = system: small flower umbrella sedge; test: Test B flooded paddy test; assay type: in vivo, Cyperus difformis; conditions: 1000 g ai/ha, scale 0 to 100 (0 no effect, 100 complete control)
# Procedure, shortened: (§4)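 Postemergence plants were sprayed with formulated test chemicals at 2 to 18 cm height (1- to 4-leaf stage); paddy species were grown to the 2-leaf stage. After 13 to 15 days in a greenhouse, injury was rated visually against untreated controls on a 0–100 scale (0 = no effect, 100 = complete control).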
# ducksalad = test: Test B flooded paddy test; assay type: in vivo, Heteranthera limosa; conditions: 1000 g ai/ha, scale 0 to 100 (0 no effect, 100 complete control)
# Procedure, shortened: as §4
# barnyardgrass [7] = test: Test A pre-/postemergence herbicide test; assay type: in vivo, Echinochloa crus-galli
# Procedure, shortened: as §3
# barnyardgrass [8] = test: Test B flooded paddy test; assay type: in vivo, Echinochloa crus-galli; conditions: 1000 g ai/ha, scale 0 to 100 (0 no effect, 100 complete control)
# Procedure, shortened: as §4
# giant foxtail [9] = test: Test A pre-/postemergence herbicide test; assay type: in vivo, Setaria faberi
# Procedure, shortened: as §3
# velvetleaf [10] = test: Test A pre-/postemergence herbicide test; assay type: in vivo, Abutilon theophrasti
# Procedure, shortened: as §3
# wheat = test: Test B postemergence herbicide test; assay type: in vivo, Triticum aestivum; set-up: key to Wheat plant response rating: 0 = no effect, 100 = complete control; conditions: postemergence
# Procedure, shortened: (§5)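 Read-out: visual comparison with controls, scored 0 to 100, where 100 means complete control and 0 no effect. Formulated chemicals were applied postemergence to plants 2–18 cm tall (1- to 4-leaf), or to flooded-paddy plants at the 2-leaf stage, then held 13 to 15 days under glass.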
# rice [11] = test: Test B flooded paddy test; assay type: in vivo, Oryza sativa; conditions: 1000 g ai/ha, scale 0 to 100 (0 no effect, 100 complete control)
# Procedure, shortened: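 Formulated test chemicals went onto postemergence plants measuring 2 to 18 cm, at one to four leaves. For the paddy assay, species had reached two leaves. Scoring took place 13–15 days later by eye, relative to untreated plants, using 0 for no effect up to 100 for full control.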
# corn = test: Test B pre-/postemergence herbicide test; assay type: in vivo, Zea mays; conditions: for Corn plant response rating: postemergence
# Procedure, shortened: as §2
# blackgrass = test: Test B postemergence herbicide test; assay type: in vivo, Alopecurus myosuroides; conditions: postemergence
# Procedure, shortened: as §4
# large crabgrass [12] = test: Test B pre-/postemergence herbicide test; assay type: in vivo, Digitaria sanguinalis; conditions: for Crabgrass, Large plant response rating: postemergence
# Procedure, shortened: as §2
# morningglory [13] = test: Test A pre-/postemergence herbicide test; assay type: in vivo, Ipomoea spp.
# Procedure, shortened: as §3
# cocklebur = test: Test B pre-/postemergence herbicide test; assay type: in vivo, Xanthium strumarium; conditions: for Cocklebur plant response rating: postemergence
# Procedure, shortened: as §1
# lambsquarters = test: Test B pre-/postemergence herbicide test; assay type: in vivo, Chenopodium album; conditions: for Lambsquarters plant response rating: postemergence
# Procedure, shortened: as §2
# large crabgrass [14] = test: Test A pre-/postemergence herbicide test; assay type: in vivo, Digitaria sanguinalis
# Procedure, shortened: as §3
# wild oat = test: Test B postemergence herbicide test; assay type: in vivo, Avena fatua; conditions: postemergence
# Procedure, shortened: as §5
# [15] = 125 g ai/ha, 0 = no effect, 100 = complete control, preemergence
# [16] = 125 g ai/ha, visual rating, scale 0 (no effect) to 100 (complete control)
# [17] = 500 g ai/ha, visual rating, 0 = no effect, 100 = complete control, preemergence
# [18] = 500 g ai/ha, scale 0 to 100, 0 is no effect, 100 is complete control
# [19] = Postemergence, 500 g ai/ha, 0 to 100 scale, 0 no effect, 100 complete control
# [20] = Postemergence, 2000 g ai/ha, 0 to 100 scale, 0 no effect, 100 complete control
# [21] = Preemergence, 2000 g ai/ha, visual rating, 0 to 100 scale (0 no effect, 100 complete control)
# [22] = preemergence, 500 g ai/ha, visual injury, 0 to 100 scale (0 no effect, 100 complete control)
smiles,measurement,setting,value
C#CCNC(=O)c1cncc(NC(=O)c2cc(C(C)(C)C)nn2CC)n1 [Compound 289],Barnyardgrass plant response rating (0 to 100 scale),barnyardgrass [1]; [15],0
same,Barnyardgrass plant response rating,barnyardgrass [1]; [16],0
same,"Plant response rating, Barnyardgrass",barnyardgrass [1]; [17],0
same,Barnyardgrass plant response rating,barnyardgrass [1]; [18],0
same,Morningglory plant response rating (0 to 100 scale),morningglory [2]; [15],0
same,Morningglory plant response rating,morningglory [2]; [16],0
same,"Plant response rating, Morningglory",morningglory [2]; [17],0
same,Morningglory plant response rating,morningglory [2]; [18],0
same,Velvetleaf plant response rating,velvetleaf [3]; [16],0
same,"Plant response rating, Velvetleaf",velvetleaf [3]; [17],0
same,Velvetleaf plant response rating,velvetleaf [3]; [18],10
same,Rice plant response rating (0 to 100 scale),rice [4]; 125 g ai/ha,0
same,"Plant response rating, Rice","rice [4]; 500 g ai/ha, visual rating",0
same,"Foxtail, Giant plant response rating (0 to 100 scale)",giant foxtail [5]; [15],0
same,"Foxtail, Giant plant response rating",giant foxtail [5]; [16],20
same,"Plant response rating, Foxtail, Giant",giant foxtail [5]; [17],0
same,"Foxtail, Giant plant response rating",giant foxtail [5]; [18],60
same,Surinam Grass plant response rating (0 to 100 scale),Surinam grass; [15],0
same,Surinam Grass plant response rating,Surinam grass; [16],0
same,"Plant response rating, Surinam Grass",Surinam grass; [17],0
same,Surinam Grass plant response rating,Surinam grass; [18],0
same,Pigweed plant response rating,redroot pigweed; [19],20
same,"Plant response rating, Pigweed",redroot pigweed; [20],50
same,Pigweed plant response rating,redroot pigweed; [21],75
same,Pigweed plant response rating,redroot pigweed; [22],0
same,Pigweed plant response rating (0 to 100 scale),pigweed; [15],0
same,Pigweed plant response rating,pigweed; [16],10
same,"Plant response rating, Pigweed",pigweed; [17],100
same,Pigweed plant response rating,pigweed; [18],20
same,"Sedge, Umbrella plant response rating",[6],0
same,Ducksalad plant response rating,ducksalad,0
same,Barnyardgrass plant response rating,barnyardgrass [7]; [19],10
same,"Plant response rating, Barnyardgrass",barnyardgrass [7]; [20],40
same,Barnyardgrass plant response rating,barnyardgrass [7]; [21],50
same,Barnyardgrass plant response rating,barnyardgrass [7]; [22],0
same,Barnyardgrass plant response rating,barnyardgrass [8],0
same,"Foxtail, Giant plant response rating",giant foxtail [9]; [19],10
same,"Plant response rating, Foxtail, Giant",giant foxtail [9]; [20],70
same,"Foxtail, Giant plant response rating",giant foxtail [9]; [21],40
same,"Foxtail, Giant plant response rating",giant foxtail [9]; [22],10
same,Velvetleaf plant response rating,velvetleaf [10]; [19],0
same,"Plant response rating, Velvetleaf",velvetleaf [10]; [20],5
same,Velvetleaf plant response rating,velvetleaf [10]; [21],20
same,Velvetleaf plant response rating,velvetleaf [10]; [22],0
same,Wheat plant response rating,wheat; [16],20
same,Wheat plant response rating,wheat; [18],20
same,Rice plant response rating,rice [11],0
same,Corn plant response rating (0 to 100 scale),corn; [15],0
same,Corn plant response rating,corn; [16],0
same,"Plant response rating, Corn",corn; [17],0
same,Corn plant response rating,corn; [18],0
same,Blackgrass plant response rating,blackgrass; [16],10
same,Blackgrass plant response rating,blackgrass; [18],10
same,"Crabgrass, Large plant response rating (0 to 100 scale)",large crabgrass [12]; [15],0
same,"Crabgrass, Large plant response rating",large crabgrass [12]; [16],0
same,"Plant response rating, Crabgrass, Large",large crabgrass [12]; [17],20
same,"Crabgrass, Large plant response rating",large crabgrass [12]; [18],0
same,Morningglory plant response rating,morningglory [13]; [19],10
same,"Plant response rating, Morningglory",morningglory [13]; [20],20
same,Morningglory plant response rating,morningglory [13]; [21],15
same,Morningglory plant response rating,morningglory [13]; [22],0
same,Cocklebur plant response rating (0 to 100 scale),cocklebur; [15],0
same,Cocklebur plant response rating,cocklebur; [16],0
same,"Plant response rating, Cocklebur",cocklebur; [17],0
same,Cocklebur plant response rating,cocklebur; [18],0
same,Lambsquarters plant response rating (0 to 100 scale),lambsquarters; [15],0
same,Lambsquarters plant response rating,lambsquarters; [16],0
same,"Plant response rating, Lambsquarters",lambsquarters; [17],100
same,Lambsquarters plant response rating,lambsquarters; [18],30
same,"Crabgrass, Large plant response rating",large crabgrass [14]; [19],20
same,"Plant response rating, Crabgrass, Large",large crabgrass [14]; [20],20
same,"Crabgrass, Large plant response rating",large crabgrass [14]; [21],55
same,"Crabgrass, Large plant response rating",large crabgrass [14]; [22],0
same,"Oat, Wild plant response rating",wild oat; [16],20
same,"Oat, Wild plant response rating",wild oat; [18],30
